Read-outs that look alike come from different tables or passages of the source.
Legend:
[1] = tested on: SH-SY5Y cell line; set-up: method as in PMID 21989390; settings: at the concentrations tested; cited from earlier work
[2] = tested on: mitochondrial lipoamide dehydrogenase; set-up: method as in PMID 8573188; settings: cited from earlier work
[3] = tested on: BV2 microglial cells; assay: Nitrite production reduction in LPS-stimulated BV2 microglial cells (Griess); type: cell-based, mouse; settings: 24 h pretreatment 0.3, 3, 10, 30 μM, then compound + LPS 100 ng/mL 18 h, Griess
Procedure: BV2 microglial cells were seeded at 2 × 10^4 cells/well and treated with compounds at increasing concentrations during 24 h in complete culture media. Then, treatments were removed, and BV2 cells were co-incubated with compounds and LPS (100 ng/mL) (O127:B8, SigmaAldrich, L3129) for additional 18 h in culture media supplemented with 1% FBS. Each plate included non-treated cells as basal nitrite production. Thereafter, nitrite production was determined by using the modified Griess assay. In brief, samples (150 μL) were mixed with DAPSONE (75 μL) (SigmaAldrich, A74807) and NEDA (75 μL) (SigmaAldrich, 33461), and the mixture was incubated at room temperature for 5 min. Light absorption was measured at 550 nm in a microplate reader (SPECTROstar nano, BMG Labtech). Basal nitrite production was referred to as 100% of nitrite production, and all data were normalized to the basal condition. Concentration needed to reduce nitrite production to 50% was calculated from graphical representation of percentage of nitrite production vs. compound concentration, and data were fitted by non-linear regression and interpolated to 50%.
Chronic neuroinflammation is considered a key pathological event in the early stages of AD development. Among immune cells present at CNS, microglia is related to host defense and tissue repair. Nonetheless, chronic neuroinflammation induced by an adverse environment of protein aggregates and exacerbated OS induces a neurotoxic activity of microglia that, finally, leads to neuronal death. […] To this end, we selected the BV2 microglial cell model stimulated by lipopolysaccharide (LPS), a TLR4 agonist that activates the pro-inflammatory response. CGP37157, R- and S-LA; analogue compounds rac-3a and (rac,R)-3b; and precursor derivatives 6 were included with comparative and reference purposes. Microglial BV2 cells were treated with increasing concentrations of the corresponding compound (0.3, 3, 10 and 30 µM) for 24 h following a pre-incubation protocol. Thereafter, treatments were exchanged by a combination of the corresponding compound at desired concentration and LPS (100 ng/mL) during 18 h. At the end of this period, nitrite production was evaluated by the Griess method as an indirect measurement of iNOS enzyme expression and BV2 activation.

[4] = tested on: NRF2; assay: NRF2 induction, luciferase expression in AREc32 cell line; type: cell-based; settings: AREc32 cells, 0.3, 3, 10 and 30 μM (LA: 0.1–0.6 mM), 24 h; mean ± SEM
Procedure: AREc32 cell line was kindly shared by Professor Roland Wolf (University of Dundee, UK). AREc32 cells were maintained in DMEM/glutamax/high glucose (Gibco, 61965-06, Madrid, Spain), supplemented with 1% penicillin–streptomycin (10,000 units) (SigmaAldrich, P4333, Madrid, Spain), geneticin (0.8 mg/mL) (Gibco, 11811-031) and 10% FBS (Gibco, 10270106), at 37 °C in a 5% CO2 air atmosphere. Cells were used from passage 4 to 18, and mycoplasma contamination was tested every 4 weeks. AREc32 cells were seeded in 96-well white plates (2 × 10^4 cells/well) for 24 h. Thereafter, cells were treated with each compound (0.3, 3, 10 and 30 µM) in duplicate for 24 h. Non-treated cells were included as basal luciferase expression and tert-butylhydroquinone (TBHQ, 10 μM) as positive control in each plate. Luciferase expression was evaluated by using the Luciferase Assay System (Promega, E1483, Madrid, Spain) by luminescence in an Orion II microplate luminometer (Berthold, Germany). Luciferase activity increase was normalized to basal conditions considered as 1. CD values (concentration required to double the luciferase activity) were calculated from dose–response curves of luciferase fold induction vs. compound concentration, fitted by non-linear regression and data interpolated to value 2.
To evaluate the influence of both stereogenic centers in the NRF2 induction capacity of aza-CGP37157-LA hybrids, we used the AREc32 cell line model by analyzing luciferase expression upon treatment with NRF2 inducers. AREc32 cells were exposed to increasing concentrations of tested compounds 7a–d (0.3, […], 10 and 30 μM) during 24 h; thereafter, luciferase expression was evaluated by luminescent assay to calculate the corresponding CD value (concentration to double luciferase expression). […] TBHQ was included as a positive control, and CGP37157, S- and R-LA, rac-3a and (rac,R)-3b and precursors derivatives (R-6 and S-6) were included for comparative purposes. […] Once R-LA is reduced, it might activate the phase II antioxidant response by acting as pro-oxidant over key Cys residues at KEAP1 to generate the corresponding lipoyl-cystinyl disulphide.

[5] = tested on: primary glial cultures; set-up: method as in PMID 31693218; settings: primary glial cultures stimulated by LPS; cited from earlier work
[6] = Cytotoxicity in SH-SY5Y cell line (MTT); type: cell-based; settings: human; SH-SY5Y, 10, 30 and 100 μM, 24 h, MTT; read-out: CC50
Procedure: SH-SY5Y human neuroblastoma cells were seeded in 96-well clear multi-well plates (6 × 10^4 cells/well). Cells were treated with increasing concentrations of compounds (10, 30 and 100 μM) for 24 h. Thereafter, viability was assessed by the MTT method. Cytotoxic concentration to observe 50% mortality (CC50) values for compounds were interpolated from dose–response curves represented as percentage of cell death vs. concentration of compound, fitted by non-linear regression and data interpolated to value 50.
(§1) The tetrazolium ring of MTT can be cleaved by active dehydrogenases to produce a formazan precipitate. At the end of the experiments, MTT (SigmaAldrich, M2003) stock solution was added to each well to achieve a final concentration of 0.5 mg/mL. Cells were incubated for 2 h. Thereafter, culture media was removed, and DMSO was added to each well to dissolve the formazan precipitate. Finally, absorbance was measured in a microplate reader (SPECTROstar nano, BMG Labtech) at 570 nm. Absorbance obtained in basal conditions was considered as 100% cell viability.
In order to evaluate the potential pharmacological profile of new compounds, we first tested the potential neurotoxicity in the neuroblastoma SHSY5Y cell line. Toxicity was evaluated at increasing concentrations (10, 30 and 100 μM), and toxicity was measured as MTT reduction capability. CC50 values were calculated by non-linear regression of curves % survival vs. concentration (Supplementary Materials Figure S2). CGP37157 and previously studied racemic derivatives rac-3a and (rac,R)-3b were included as reference compounds. As previously described, LA is a non-neurotoxic compound at the concentrations texted.

[7] = tested on: SH-SY5Y neuroblastoma cells; assay: Neuroprotection against rotenone/oligomycin A oxidative stress in SH-SY5Y cells (MTT); type: cell-based, human; settings: compound 1 μM 24 h, then compound + R/O (30/10 μM) 24 h; for % Survival: basal = 100, R/O alone 53.4
Procedure: Human neuroblastoma SH-SY5Y cells were plated in 96-well clear multi-well plates (6 × 10^4 cells/well). The potential neuroprotective activity of compounds against OS was evaluated using the rotenone (30 μM) (SigmaAldrich, R8875) and oligomycin A (10 μM) (SigmaAldrich, 75351) (R/O) toxic mixture. Neuroprotection activity against Tau hyperphosphorylation was evaluated by using the okadaic acid (20 nM) model. Cells were pre-incubated with each compound (1 µM) for 24 h, and then treatments were removed and cells were incubated with compounds (1 µM) in the presence the corresponding toxic for additional 24 h. At the end of the experiments, viability was determined by the MTT method. Data were normalized from cell death induced by the toxic stimuli (considered as 100% cell death). Then, the protection percentages were calculated by subtracting from the death induced by toxic stimuli, the death in the presence of the compound.
as §1
Thus, we selected a pre-incubation protocol to evaluate their potential neuroprotective capacity based on the NRF2-induction activity and direct antioxidant effect. Compound pre-incubation would induce the expression of antioxidant enzymes regulated by the phase II antioxidant response, thus promoting cells’ survival. The co-incubation period would also evaluate their capacity to trap free radicals produced by intoxicated mitochondria. SH-SY5Y neuroblastoma cells were treated with compounds (1 µM) during 24 h, and then cells were co-incubated with the corresponding compound at the same concentration and the R/O combination (30/10 µM) for additional 24 h. Melatonin, a well-known antioxidant natural neurohormone, was included as a positive control (1 µM). Previously reported racemic derivatives (rac-3a and (rac,R)-3b) and their precursors ((±)-6, R-6 and S-6) were included for comparative purposes at the same concentration.

[8] = set-up: method as in PMID 31693218; settings: cited from earlier work; for DPPH Scavenging at 100 µM, %: compound 100 µM; for DPPH Scavenging at 1mM, %: compound 1 mM
[9] = tested on: NRF2; settings: AREc32 cells, cited from earlier work; for CD (concentration required to double the specific luciferase activity): 24 h, Table S1, ref [3] of the supplement; for CD (concentration to double luciferase expression): previous results

Row | IC50 [3] [µM] | Compound | neurotoxicity [1] | rate of conversion to dihydrolipoic acid relative to S-LA [2] [times] | CD (concentration required to double the specific luciferase activity) [4] [µM] | reduction of nitrite production [5] | CC50 at 24 h [6] [µM] | % Protection [7] [%] | % Survival [7] [%] | DPPH Scavenging at 100 µM, % [8] | DPPH Scavenging at 1mM, % [8] | CD (concentration required to double the specific luciferase activity) [9] [µM] | CD (concentration to double luciferase expression) [9] [µM]
1 | – | O=C(O)CCCCC1CCSS1 (centres unmarked) [LA, lipoic acid] | non-neurotoxic | – | – | – | – | – | – | – | – | – | –
2 | > 30 | O=C(O)CCCC[C@@H]1CCSS1 [(R) -Lipoic acid, (R)-Lipoic acid, reference compound] | – | 28 | > 600 | – | – | – | – | – | – | – | –
3 | – | O=C1CN(CCOC(=O)CCCCC2CCSS2)C(c2ccccc2Cl)c2cc(Cl)ccc2N1 (racemic) [rac-3a] | – | – | – | able to reduce nitrite production | 97.1 ± 2.3 | 52.1 | 69.0 ± 5.6 | 15.1 ± 3.4 [19] % | 37.4 ± 3.8 [19] % | 14.8 ± 1.6 | 14.8 ± 1.6
4 | – | O=C1CN(CCOC(=O)CCCC[C@@H]2CCSS2)C(c2ccccc2Cl)c2cc(Cl)ccc2N1 (mixture of isomers) [(rac,R)-3b] | – | – | – | not active | 76.2 ± 4.8 | 59.3 | 72.9 ± 3.5 | 8.7 ± 5.1 [19] % | 30.7 ± 3.9 [19] % | 9.8 ± 1.6 | 9.8 ± 1.6

From publication PMC8772772, “Enantioselective Synthesis and Pharmacological Evaluation of Aza-CGP37157–Lipoic Acid Hybrids for the Treatment of Alzheimer’s Disease” (Antioxidants, 2022)
